As usually defined, the melting point is the temperature, or range, at which the solid turns liquid.

Data on 14 compounds can be found in US9428477B2, “Trans-2-decenoic acid derivative and drug containing same” (NIPPON ZOKI PHARMACEUTICAL CO., LTD., priority 2012, dated 2016).

The test system of data set [1] is rats with paclitaxel-induced peripheral nerve disorder. In words: Rat peripheral nerve disorder induced by paclitaxel, von Frey test. The class given is in vivo. As to conditions: ip, test drug intraperitoneally, single dose, higher of values 1 and 5 hours after administration, mechanical stimulus of right hind limb, normal threshold 15, read-out: Recovery Rate of 50% Reaction Threshold Value. The method, then: The effects of the compounds of the present invention were evaluated for a peripheral nerve disorder which is a side effect induced by the administration of an anti-cancer agent paclitaxel, such as hyperesthesia including allodynia induced by mechanical stimuli, which is a severe pain induced by such tactile stimuli which usually cause no pains. The compound of the present invention was intraperitoneally administered to rats as a test drug to conduct a von Frey test.
Male SD rats of six weeks age (six rats per group) were used as experimental animals, and paclitaxel (2 mg/kg) was intraperitoneally administered every other day for four times in total to prepare rats with paclitaxel-induced peripheral nerve disorder. During the period of 18 to 25 days or during the period of 20 to 27 days after the initiation of paclitaxel administration, the test drug was intraperitoneally administered in a single dose of […], and the following von Frey test was conducted.
(§1) The rats of the above (1) were placed in a transparent acrylic cage with a wire-meshed floor and habituated for about three minutes, and the 50% reaction threshold values to the mechanical stimulus of right hind limb were measured before administration of the test drug and after 1 and 5 hours from the initiation of the administration.
(§2) The measurement was conducted using von Frey filaments (manufactured by North Coast Medical Inc.) in accordance with the methods of Chaplan, et al. (Journal of Neuroscience Methods, 53(1), 55-63, 1994) and Dixon, et al. (Annual Review of Pharmacology and Toxicology, 20, 441-462, 1980). […] The case where the rat escaped at the instance of removing the filament was also called positive. When the positive reaction was found, stimulus was applied similarly with a filament of one rank weaker, and in the absence of the reaction, stimulus was similarly applied with a filament of one rank stronger, and a point where the reaction changed from negative to positive or from positive to negative was called the first two reactions. Subsequently, stimuli were applied for continuously four times by the same up-down method. A 50% reaction threshold value to the mechanical stimulus was measured using the reaction to the six stimuli in total and then (mean value)±(standard error) for each group was calculated. Incidentally, when stimulus reached to a load of 15.0 g without positive reaction, or when positive reaction continued to a load of 0.4 g, 15.0 g or 0.25 g was adopted as each of 50% reaction threshold values. With regard to the higher 50% reaction threshold value between the 50% threshold values after 1 hour and 5 hours from administration of a test drug, a recovery rate (%) of the 50% reaction threshold value was calculated by the following expression in which 15 was taken as a normal threshold value.
Recovery rate (%) of 50% reaction threshold value=[(50% reaction threshold value after 1 hour or 5 hours from administration of test drug)−(50% reaction threshold value before administration of test drug)]/[(Normal threshold value)−(50% reaction threshold value before administration of test drug)]×100

Data set [2] concerns MIA-induced OA rats. The data set can be described thus: Analgesic action against osteoarthritis model rats (MIA-induced OA), von Frey test. Format: in vivo, rat. As to conditions: intraperitoneally, single dose of 500 μg/kg, hyperalgesia of OA induced by MIA. How it is done: as §1
as §2, with “value. […]” for “value.”
A 50% reaction threshold value to the mechanical stimulus of male Wistar rats of six weeks age was measured (the measurement method will be mentioned later), and a normal control group was selected. […]
With regard to the male Wistar rats of six weeks age used as experimental animals except the normal control group, their 50% reaction threshold values to the mechanical stimulus (the measuring method will be mentioned later) and body weights were measured after 24 days from the administration of MIA mentioned in (1) and then 3 groups, i.e. a normal control group, an onset control group, and a test drug-administered group, six rats per group, were organized. […]

Data set [3] has as its system MAP kinase (ERK 1/2). The data set can be described thus: Activation (phosphorylation) of MAP kinase in cultured cerebral cortex nerve cells, Western immunoblotting. Format: cell-based. As to conditions: 0.5 h; fetal rat cerebral cortex nerve cells; compound 250 μg/ml in 0.1% DMSO; 30 minutes; relative to control = 1.00; read-out: Ratio of pMAPK to MAPK. How it is done:
With regard to the compounds of the present invention, the activation of MAP kinase (ERK 1/2) was measured in accordance with a Western immunoblotting in the following manner.
Nerve cells were dispersed from cerebral cortex of a fetal rat of 17 days age, and the nerve cells were cultured for one day in a Dulbecco's modified Eagle's medium (DMEM) containing 5% fetal bovine serum. The culture medium was exchanged with a serum-free medium (B27 supplemented Neurobasal; Invitrogen), and the nerve cells were cultured at the density of 20,000 to 40,000 cells/cm^2 in a polyornithine-coated culture dish.
After three days, the compound of the present invention was added, and the culture was continued for 30 minutes. Thereafter, the cells were recovered on ice using a solution containing a phosphatase inhibitor where Tris-HCl buffer was used as a base. The protein concentration of the resulting cell extract was quantified with a BCA Protein Assay Kit (Takara Bio Co., Ltd.), and a certain amount of the protein (3 μg for the measurement of MAP kinase and 5 μg for the measurement of phosphorylated MAP kinase) was subjected to polyacrylamide gel electrophoresis. The protein was transferred from the electrophoresed gel to a PVDF membrane, and Western immunoblotting was carried out using each of an anti-MAP kinase antibody (Cell Signaling Technology) and an anti-phosphorylated MAP kinase antibody (Cell Signaling Technology) of the primary antibody.
Subsequently, the reaction with an alkaline phosphatase-labeled anti-rabbit IgG antibody (Promega) of the secondary antibody was carried out, and the enzymatic activity was allowed to develop color, to measure MAP kinase (MAPK) and the phosphorylated MAP kinase (pMAPK).
Incidentally, each of the compounds of the present invention was dissolved in 0.1% DMSO to adjust its concentration to 250 μg/ml. As to the control, 0.1% DMSO was added.
The intensity of the concentration of the bands of eletrophoresed the gel was calculated and quantified using Image J (K. K. Bioarts). The numerical values for the MAPK when using the compounds of the present invention were each divided by the numerical value for the MAPK of the control, and the numerical values for the pMAPK when using the compounds of the present invention were divided by the numerical value for the pMAPK of the control, whereby a ratio of the MAPK when using each of the compounds of the present invention to the control, and a ratio of the pMAPK when using each of the compounds of the present invention to the control were obtained. Subsequently, the ratio of the pMAPK to the control obtained was divided by the ratio of the MAPK to the control to obtain a ratio of the pMAPK to the MAPK.

The structures appear in SMILES notation.

With `CCCCCCC/C=C/C(=O)N1CCN(c2ccccc2)CC1` [Compound 25, 1-((E)-2-Decenoyl)-4-phenylpiperazine], in data set [1], the change in vivo at 0.3 mg/kg came to 55.3%. The “Recovery Rate of 50% Reaction Threshold” value in data set [2] amounted to 18.9%.

As for `CCCCCCC/C=C/C(=O)N1CCN(Cc2ccccc2)CC1` [Compound 26, 4-Benzyl-1-((E)-2-decenoyl)piperazine], the melting point was 62 to 63 °C. In data set [1], the change in vivo at 0.3 mg/kg came to 24.1%. Moreover, the fold induction at 250 µg/mL in data set [3] is 1.48.

As to `CCCCCCC/C=C/C(=O)N1CCN(C2CCCCC2)CC1` [Compound 23, 4-Cyclohexyl-1-((E)-2-decenoyl)piperazine], the melting point was in the range of 33 to 34 °C. In addition, in data set [1], the change in vivo at 0.3 mg/kg amounted to 33%. In data set [3], the fold induction at 250 µg/mL was 1.3.

Consider `CCCCCCC/C=C/C(=O)N1CCN(CCN2CCCCC2)CC1` [Compound 24, 1-((E)-2-Decenoyl)-4-(2-piperidin-1-ylethyl)piperazine], for which the change in vivo at 0.3 mg/kg in data set [1] turned out to be 49.7%. Moreover, the fold induction at 250 µg/mL in data set [3] was found to be 2.58.

In the case of `CCCCCCC/C=C/C(=O)N1CCN(CCN(C)C)CC1` [Compound 22, 1-((E)-2-Decenoyl)-4-[2-(dimethylamino)ethyl]piperazine], the change in vivo at 0.3 mg/kg in data set [1] came to 29.7%. For the same compound, the “Recovery Rate of 50% Reaction Threshold” value in data set [2] was found to be 13.2%.

`CCCCCCC/C=C/C(=O)N1CCN(CCC(=O)O)CC1` [Compound 21, 3-[4-((E)-2-decenoyl)piperazin-1-yl]propionic acid] displayed a melting point of 53 to 55 °C. Moreover, in data set [1], the change in vivo at 0.3 mg/kg came out at 34.8%. For the same compound, the fold induction at 250 µg/mL in data set [3] was found to be 1.54.

`CCCCCCC/C=C/C(=O)N1CCN(CCc2ccccc2)CC1` [Compound 27, 1-((E)-2-Decenoyl)-4-(2-phenylethyl)piperazine] yielded a melting point of 33 to 34 °C. For the same compound, in data set [1], the change in vivo at 0.3 mg/kg stood at 69.1%. Also, the fold induction at 250 µg/mL in data set [3] is 1.44.

`CCCCCCC/C=C/C(=O)N1CCC[C@H]1C(=O)O` [Compound 2, (S)-1-((E)-2-Decenoyl)pyrrolidine-2-carboxylic acid]: in data set [1], the change in vivo at 0.3 mg/kg worked out at 23.5%. In data set [3], the fold induction at 250 µg/mL turned out to be 1.28.

`CCCCCCC/C=C/C(=O)N1CCCC1` [Compound 1, 1-((E)-2-Decenoyl)pyrrolidine]: in data set [1], the change in vivo at 0.3 mg/kg worked out at 58.2%. Further, the “Recovery Rate of 50% Reaction Threshold” value in data set [2] was found to be 24.2%.

With `CCCCCCC/C=C/C(=O)N1CCN(C(C)C)CC1` [Compound 20, 1-((E)-2-Decenoyl)-4-isopropylpiperazine], in data set [1], the change in vivo at 0.3 mg/kg amounted to 26.9%. In data set [3], the fold induction at 250 µg/mL was determined as 1.27.

Regarding `CCCCCCC/C=C/C(=O)N1CCC(=O)CC1` [Compound 7, 1-((E)-2-decenoyl)piperidin-4-one], in data set [1], the change in vivo at 0.3 mg/kg is 45.2%. Besides, the fold induction at 250 µg/mL in data set [3] turned out to be 1.62.

On to `CCCCCCC/C=C/C(=O)N1CCC(N(CC)CC)CC1` [Compound 13, 1-((E)-2-Decenoyl)-4-diethylaminopiperidine], for which the change in vivo at 0.3 mg/kg in data set [1] was found to be 23.2%. For the same compound, in data set [3], the fold induction at 250 µg/mL was found to be 1.63.

For the compound `CCCCCCC/C=C/C(=O)N1CCSCC1` [Compound 18, 4-((E)-2-decenoyl)thiomorpholine], the change in vivo at 0.3 mg/kg in data set [1] is 48.9%. Also, the fold induction at 250 µg/mL in data set [3] was found to be 1.28.

For `CCCCCCC/C=C/C(=O)N1CCCCC1` [Compound 5, 1-((E)-2-Decenoyl)piperidine], the change in vivo at 0.3 mg/kg in data set [1] is 41.6%. For the same compound, the “Recovery Rate of 50% Reaction Threshold” value in data set [2] turned out to be 35.8%.
